Data: US7501430B2 (ArQule, Inc., priority 2006, dated 2009)
Like-named read-outs stand apart in the source and are kept apart here.

Molecular target: T1, mutant B-RAF (Homo sapiens, UniProt P15056, V600E)
T1 construct: purchased Upstate (Charlottesville, Va.)
Assay: RAF biochemical assay (MEK-1 phosphorylation, anti-phospho MEK1/2 detection)
Conditions: for inhibition at 10 µM: read-out: Mutant B-RAF % inhibition
Procedure, shortened: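 Detection is by ELISA: after a 30 min room-temperature reaction, plate-captured GST-MEK-1 is probed with anti-phospho MEK1/2, then an AP-tagged secondary antibody with fluorescent Attophos read-out.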

T1 sequence (P15056 whole entry V600E): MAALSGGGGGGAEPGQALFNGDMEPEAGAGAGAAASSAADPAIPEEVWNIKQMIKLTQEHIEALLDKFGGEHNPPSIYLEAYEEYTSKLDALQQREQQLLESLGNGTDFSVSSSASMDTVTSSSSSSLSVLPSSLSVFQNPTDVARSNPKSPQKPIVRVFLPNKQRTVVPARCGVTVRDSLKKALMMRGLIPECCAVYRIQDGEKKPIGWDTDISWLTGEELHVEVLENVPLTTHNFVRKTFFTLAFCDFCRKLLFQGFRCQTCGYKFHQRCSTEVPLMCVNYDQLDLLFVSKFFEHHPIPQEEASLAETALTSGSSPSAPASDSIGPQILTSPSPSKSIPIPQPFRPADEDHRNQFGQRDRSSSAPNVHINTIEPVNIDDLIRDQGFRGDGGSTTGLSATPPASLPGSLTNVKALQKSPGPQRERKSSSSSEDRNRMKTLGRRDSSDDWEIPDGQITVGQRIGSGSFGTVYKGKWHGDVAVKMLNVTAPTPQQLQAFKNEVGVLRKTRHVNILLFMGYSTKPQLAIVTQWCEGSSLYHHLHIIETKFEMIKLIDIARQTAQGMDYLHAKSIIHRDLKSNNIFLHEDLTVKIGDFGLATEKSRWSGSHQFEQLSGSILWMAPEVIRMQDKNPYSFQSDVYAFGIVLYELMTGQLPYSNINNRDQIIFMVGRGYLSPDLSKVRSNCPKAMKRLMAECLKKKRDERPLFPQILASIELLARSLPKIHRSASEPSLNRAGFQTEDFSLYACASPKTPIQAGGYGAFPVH

SMILES | IC50 (read-out: Mutant B-RAF IC50) | also measured
CCCCNC(=O)N1CCC(Nc2nccc(-c3c(-c4ccc(F)cc4)nc4occn34)n2)CC1 [Example 168, N-butyl-4-({4-[6-(4-fluorophenyl)imidazo[2,1-b][1,3]oxazol-5-yl]pyrimidin-2-yl}amino)piperidine-1-carboxamide] | 1.11 µM | –
CC(=O)N1CCC(Nc2nccc(-c3c(-c4ccccc4Cl)nc4occn34)n2)CC1 [Example 302, N-(1-acetylpiperidin-4-yl)-4-[6-(2-chlorophenyl)imidazo[2,1-b][1,3]oxazol-5-yl]pyrimidin-2-amine] | – | inhibition at 10 µM (@ 10 uM): 39%
COc1cccc(-c2nc3sccn3c2-c2ccnc(N[C@H]3CCCNC3)n2)c1 [Example 137, 4-[6-(3-methoxyphenyl)imidazo[2,1-b][1,3]thiazol-5-yl]-N-[(3S)-piperidin-3-yl]pyrimidin-2-amine] | – | inhibition at 10 µM (@ 10 uM): 42%
C[C@H](NC(=O)N1CCC(Nc2nccc(-c3c(-c4ccc(F)cc4)nc4occn34)n2)CC1)c1ccccc1 [Example 195, 4-({4-[6-(4-fluorophenyl)imidazo[2,1-b][1,3]oxazol-5-yl]pyrimidin-2-yl}amino)-N-[(1S)-1-phenylethyl]piperidine-1-carboxamide] | – | inhibition at 10 µM (@ 10 uM): 56%
COc1cccc(-c2nc3sccn3c2-c2ccnc(N[C@@H]3CCNC3)n2)c1 [Example 279, 4-[6-(3-methoxyphenyl)imidazo[2,1-b][1,3]thiazol-5-yl]-N-[(3R)-pyrrolidin-3-yl]pyrimidin-2-amine] | – | inhibition at 10 µM (@ 10 uM): 36%
Cc1cn2c(-c3ccnc(NC4CCNCC4)n3)c(-c3ccc(F)cc3)nc2s1 [Example 224, 4-[6-(4-fluorophenyl)-2-methylimidazo[2,1-b][1,3]thiazol-5-yl]-N-piperidin-4-ylpyrimidin-2-amine] | – | inhibition at 10 µM (@ 10 uM): 70%
O=C(c1ccc(F)cc1)N1CCC[C@@H](Nc2nccc(-c3c(-c4ccc(F)cc4)nc4occn34)n2)C1 [Example 28, N-[(3R)-1-(4-fluorobenzoyl)piperidin-3-yl]-4-[6-(4-fluorophenyl)imi-dazo[2,1-b][1,3]oxazol-5-yl]pyrimidin-2-amine] | – | IC50: 0.184 µM
Fc1ccc(-c2nc3sccn3c2-c2ccnc(NC3CNC3)n2)cc1 [Example 287, N-azetidin-3-yl-4-[6-(4-fluorophenyl)imidazo[2,1-b][1,3]thiazol-5-yl]pyrimidin-2-amine] | 2.49 µM | –
O=S(=O)(c1cccc(C(F)(F)F)c1)N1CCC[C@@H](Nc2nccc(-c3c(-c4ccc(F)cc4)nc4occn34)n2)C1 [Example 46, 4-[6-(4-fluorophenyl)imi-dazo[2,1-b][1,3]oxazol-5-yl]-N-((3R)-1-{[3-(trifluoro-methyl)phenyl]sulfonyl}piper-idin-3-yl)pyrimidin-2-amine] | – | Mutant B-RAF % inhibition (@ 10 uM): 19 @ 10 uM %
O=C(c1ccc(F)cc1)N1CCC(Nc2nccc(-c3c(-c4ccc(F)cc4)nc4occn34)n2)CC1 [Example 181, N-[1-(4-fluorobenzoyl)piperidin-4-yl]-4-[6-(4-fluorophenyl)imidazo[2,1-b][1,3]oxazol-5-yl]pyrimidin-2-amine] | 2.7 µM | –
COc1cc(-c2nc3sccn3c2-c2ccnc(N[C@@H]3CCCN(S(=O)(=O)c4ccc(Cl)cc4)C3)n2)ccc1Cl [Example 100, 4-[6-(4-chloro-3-methoxyphenyl)imidazo[2,1-b][1,3]thiazol-5-yl]-N-{(3R)-1-[(4-chlorophenyl)sulfonyl]piper-idin-3-yl}pyrimidin-2-amine] | – | inhibition at 10 µM (@ 10 uM): 40%
O=[N+]([O-])c1cccc(-c2nc3sccn3c2-c2ccnc(N[C@@H]3CCCN(S(=O)(=O)c4ccc(Cl)cc4)C3)n2)c1 [Example 120, N-{(3R)-1-[(4-chlorophenyl)sulfonyl]piperidin-3-yl}-4-[6-(3-nitrophenyl)imidazo[2,1-b][1,3]thiazol-5-yl]pyrimidin-2-amine] | – | inhibition at 10 µM (@ 10 uM): 55%
CC(=O)c1ccc(-c2nc3sccn3c2-c2ccnc(N[C@@H]3CCCN(S(=O)(=O)c4ccc(Cl)cc4)C3)n2)cc1 [Example 400, 1-(4-{5-[2-({(3R)-1-[(4-chlorophenyl)sulfonyl]piperidin-3-yl}amino)pyrimidin-4-yl]imidazo[2,1-b][1,3]thiazol-6-yl}phenyl)ethanone] | – | IC50 (read-out: Mutant B-RAF IC50 (uM) or % inhibition): 1.3 µM
Fc1ccc(-c2nc3sccn3c2-c2ccnc(NC3CCNCC3)n2)cc1 [Example 155, 4-[6-(4-fluorophenyl)imidazo[2,1-b][1,3]thiazol-5-yl]-N-piperidin-4-ylpyrimidin-2-amine] | 2.36 µM | –
O=S(=O)(c1ccc(Cl)cc1)N1CCC[C@@H](Nc2nccc(-c3c(-c4ccc(F)c(F)c4)nc4sccn34)n2)C1 [Example 114, N-{(3R)-1-[(4-chlorophenyl)sulfonyl]piperidin-3-yl}-4-[6-(3,4-difluorophenyl)imidazo[2,1-b][1,3]thiazol-5-yl]pyrimidin-2-amine] | – | inhibition at 3 µM (@ 3 uM): 48%
COc1cccc(-c2nc3sccn3c2-c2ccnc(N[C@@H]3CCCN(C(=O)CC(C)C)C3)n2)c1 [Example 109, 4-[6-(3-methoxyphenyl)imidazo[2,1-b][1,3]thiazol-5-yl]-N-[(3R)-1-(3-methylbutanoyl)piperidin-3-yl]pyrimidin-2-amine] | > 3 µM | –
O=C(NCc1ccccc1)N1CCC(Nc2nccc(-c3c(-c4ccc(F)cc4)nc4occn34)n2)CC1 [Example 170, N-benzyl-4-({4-[6-(4-fluorophenyl)imidazo[2,1-b][1,3]oxazol-5-yl]pyrimidin-2-yl}amino)piperidine-1-carboxamide] | 0.189 µM | –
O=C(NCc1ccccc1)N1CCC(Nc2nccc(-c3c(-c4ccc(F)c(F)c4)nc4sccn34)n2)CC1 [Example 251, N-benzyl-4-({4-[6-(3,4-difluorophenyl)imidazo[2,1-b][1,3]thiazol-5-yl]pyrimidin-2-yl}amino)piperidine-1-carboxamide] | – | inhibition at 10 µM (@ 10 uM): 63%
COc1cccc(-c2nc3sccn3c2-c2ccnc(N[C@@H]3CCCN(C[C@@H](O)CO)C3)n2)c1 [Example 147, (2R)-3-[(3R)-3-({4-[6-(3-methoxyphenyl)imidazo[2,1-b][1,3]thiazol-5-yl]pyrimidin-2-yl}amino)piperidin-1-yl]propane-1,2-diol] | > 3 µM | –
O=C([C@@H]1CCCN1)N1CCC[C@@H](Nc2nccc(-c3c(-c4ccc(F)cc4)nc4occn34)n2)C1 [Example 37, 4-[6-(4-fluorophenyl)imi-dazo[2,1-b][1,3]oxazol-5-yl]-N-[(3R)-1-L-prolylpiperidin-3-yl]pyrimidin-2-amine] | – | IC50: > 5 µM
COc1cc(-c2nc3sccn3c2-c2ccnc(NC3CCN(S(=O)(=O)C4CC4)CC3)n2)ccc1F [Example 349, N-[1-(cyclopropylsulfonyl)piperidin-4-yl]-4-[6-(4-fluoro-3-methoxyphenyl)imidazo[2,1-b][1,3]thiazol-5-yl]pyrimidin-2-amine] | 2.6 µM | –
COc1cccc(-c2nc3sccn3c2-c2ccnc(N[C@@H]3CCCN(C(=O)NCc4ccco4)C3)n2)c1 [Example 81, (3R)-N-(2-furylmethyl)-3-({4-[6-(3-methoxyphenyl)imi-dazo[2,1-b][1,3]thiazol-5-yl]pyrimidin-2-yl}amino)piperidine-1-carboxamide] | – | inhibition at 10 µM: 50%
COc1cccc(-c2nc3occn3c2-c2ccnc(N[C@@H]3CCCNC3)n2)c1 [Example 115, 4-[6-(3-methoxyphenyl)imidazo[2,1-b][1,3]oxazol-5-yl]-N-[(3R)-piperidin-3-yl]pyrimidin-2-amine] | > 10 µM | –

Further lines, with some results ahead:

IC50 (read-out: Mutant B-RAF IC50) | SMILES | also measured
> 3 µM | CC(=O)Nc1ccc(-c2nc3sccn3c2-c2ccnc(NC3CCN(S(=O)(=O)c4ccc(Cl)cc4)CC3)n2)cc1 [Example 259, N-(4-{5-[2-({1-[(4-chlorophenyl)sulfonyl]piperidin-4-yl}amino)pyrimidin-4-yl]imidazo[2,1-b][1,3]thiazol-6-yl}phenyl)acetamide] | –
0.092 µM | COc1cccc(-c2nc3sccn3c2-c2ccnc(N[C@@H]3CCCN(S(=O)(=O)c4ccc(C(=O)O)cc4)C3)n2)c1 [Example 119, 4-{[(3R)-3-({4-[6-(3-methoxyphenyl)imidazo(2,1-b][1,3]thiazol-5-yl]pyrimidin-2-yl}amino)piperidin-1-yl]sulfonyl}benzoic acid] | –
0.65 µM | CC(C)NC(=O)N1CCC[C@@H](Nc2nccc(-c3c(-c4cccc(O)c4)nc4sccn34)n2)C1 [Example 334, (3R)-3-({4-[6-(3-hydroxyphenyl)imidazo[2,1-b][1,3]thiazol-5-yl]pyrimidin-2-yl}amino)-N-isopropylpiperidine-1-carboxamide] | –
2.67 µM | NC(=O)c1ccc(-c2nc3sccn3c2-c2ccnc(N[C@@H]3CCCN(S(=O)(=O)c4ccc(Cl)cc4)C3)n2)cc1 [Example 379, 4-{5-[2-({(3R)-1-[(4-chlorophenyl)sulfonyl]piperidin-3-yl}amino)pyrimidin-4-yl]imidazo[2,1-b][1,3]thiazol-6-yl}benzamide] | –
0.147 µM | COc1cccc(-c2nc3sccn3c2-c2ccnc(N[C@@H]3CCCN(S(=O)(=O)c4ccc(Cl)cc4)C3)n2)c1 [Example 95, N-{(3R)-1-[(4-chlorophenyl)sulfonyl]piperidin-3-yl}-4-[6-(3-methoxyphenyl)imidazo[2,1-b][1,3]thiazol-5-yl]pyrimidin-2-amine] | –
2.26 µM | O=S(=O)(c1ccc(Cl)cc1)N1CCC[C@@H](Nc2nccc(-c3c(-c4ccc(CO)cc4)nc4sccn34)n2)C1 [Example 378, (4-{5-[2-({(3R)-1-[(4-chlorophenyl)sulfonyl]piperidin-3-yl}amino)pyrimidin-4-yl]imidazo[2,1-b][1,3]thiazol-6-yl}phenyl)methanol] | –
0.029 µM | O=S(=O)(c1ccc(F)cc1)N1CCC(Nc2nccc(-c3c(-c4cccc(O)c4)nc4sccn34)n2)CC1 [Example 266, 3-{5-[2-({1-[(4-fluorophenyl)sulfonyl]piperidin-4-yl}amino)pyrimidin-4-yl]imidazo[2,1-b][1,3]thiazol-6-yl}phenol] | –
0.63 µM | N#Cc1ccc(S(=O)(=O)N2CCC[C@@H](Nc3nccc(-c4c(-c5ccc(F)cc5)nc5occn45)n3)C2)cc1 [Example 55, 4-{[(3R)-3-({4-[6-(4-fluorophenyl)imidazo[2,1-b][1,3]oxazol-5-yl]pyrimidin-2-yl}amino)piperidin-1-yl]sulfonyl}benzonitrile] | –
